Assay results: patent publication US5962314A, “Calcium receptor-active molecules” (priority 1997, dated 1999)
“Also recorded” adds a separate entry of the source. Where two headings read alike, the source gives them in different places.

How the values were obtained:
Format in all cases: cell-based
[1] = biological target: T1, parathyroid cell calcium receptor (Bos taurus, UniProt P35384); test: cell-based; conditions: for EC50: increases in intracellular calcium, fura-2 loaded cells; for relative potency, in words: parathyroid cells; for effect on mobilization elicited by extracellular divalent cations / effect on [Ca2+]i at low extracellular Ca2+: 100 μM; for effect on [Ca2+]i at low extracellular Ca2+: 0.5 mM extracellular Ca2+
T1 sequence (P35384 20-1085): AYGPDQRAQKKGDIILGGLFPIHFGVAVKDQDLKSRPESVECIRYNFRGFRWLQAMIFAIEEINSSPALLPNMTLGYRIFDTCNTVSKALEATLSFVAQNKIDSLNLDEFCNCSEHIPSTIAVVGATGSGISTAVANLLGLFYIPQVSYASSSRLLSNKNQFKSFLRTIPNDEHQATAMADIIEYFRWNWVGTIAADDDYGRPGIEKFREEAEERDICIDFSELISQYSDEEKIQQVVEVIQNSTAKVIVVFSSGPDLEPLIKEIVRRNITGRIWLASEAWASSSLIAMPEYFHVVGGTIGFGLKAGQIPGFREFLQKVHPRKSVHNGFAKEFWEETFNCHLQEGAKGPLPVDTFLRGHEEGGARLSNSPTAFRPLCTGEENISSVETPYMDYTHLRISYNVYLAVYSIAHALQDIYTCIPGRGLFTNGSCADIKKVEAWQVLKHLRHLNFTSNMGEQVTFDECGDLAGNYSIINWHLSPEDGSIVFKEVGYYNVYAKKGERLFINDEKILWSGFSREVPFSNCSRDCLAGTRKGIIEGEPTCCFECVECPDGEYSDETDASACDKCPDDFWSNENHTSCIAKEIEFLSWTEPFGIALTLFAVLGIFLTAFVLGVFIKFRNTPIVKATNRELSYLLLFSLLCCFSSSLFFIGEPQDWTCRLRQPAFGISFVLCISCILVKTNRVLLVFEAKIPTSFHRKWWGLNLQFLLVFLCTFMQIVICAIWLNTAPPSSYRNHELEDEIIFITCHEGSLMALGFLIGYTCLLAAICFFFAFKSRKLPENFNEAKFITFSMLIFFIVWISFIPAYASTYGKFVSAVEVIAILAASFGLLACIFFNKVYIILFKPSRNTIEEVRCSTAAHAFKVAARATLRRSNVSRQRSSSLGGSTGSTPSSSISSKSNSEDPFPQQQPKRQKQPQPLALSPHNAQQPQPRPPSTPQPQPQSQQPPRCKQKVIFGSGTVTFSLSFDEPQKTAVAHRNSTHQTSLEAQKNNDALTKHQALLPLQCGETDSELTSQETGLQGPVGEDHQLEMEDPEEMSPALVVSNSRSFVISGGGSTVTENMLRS
Method: For example,. bovine parathyroid cells loaded with fura-2 are initially suspended in buffer containing 0.5 mM CaCl2. A test substance is added to the cuvette in a small volume (5-15 μl) and changes in the fluorescence signal are measured. Cumulative increases in the concentration of the test substance are made in the cuvette until some predetermined concentration is achieved or no further changes in fluorescence are noted.
Human parathyroid glands, were obtained from patients undergoing surgical removal of parathyroid tissue for primary or uremic hyperparathyroidism (uremic HPT), and were treated similarly to bovine tissue.
The cells were then pelleted, resuspended in the same buffer, but lacking the ester, and incubated a further 15 minutes at 37° C. The cells were subsequently washed twice with PCB containing 0.5 mM CaCl2 and 0.5% BSA and maintained at room temperature (about 20° C.). Immediately before use, the cells were diluted five-fold with prewarmed 0.5 mM CaCl2 -PCB to obtain a final BSA concentration of 0.1%. The concentration of cells in the cuvette used for fluorescence recording was 1-2×10^6 /ml.
The fluorescence of indicator-loaded cells was measured at 37° C. in a spectrofluorimeter (Biomedical Instrumentation Group, University of Pennsylvania, Philadelphia, Pa.) equipped with a thermostated cuvette holder and magnetic stirrer using excitation and emission wavelengths of 340 and 510 nm, respectively. […] Leakage of dye is dependent on temperature and most occurs within the first 2 minutes after warming the cells in the cuvette. Dye leakage increases only very slowly thereafter. To correct the calibration for dye leakage, cells were placed in the cuvette and stirred at 37° C. for 2-3 minutes. The cell suspension was then removed, the cells pelleted, and the supernatant returned to a clean cuvette. […] This estimate was subtracted from the apparent Fmin.

[2] = biological target: T2, bovine parathyroid cell calcium receptor (Bos taurus, UniProt P35384); test: Cl- current in Xenopus oocytes expressing BoPCaR 1; conditions: for effect on inward currents: EGTA 100 μM, 9AC, A23187
T2 construct: expressed in transfected cells; host or cells: Xenopus laevis oocytes injected with BoPCaR 1 cRNA
T2 sequence (P35384 20-1085): T1 sequence (P35384 20-1085)
Method: Several pharmacological and biochemical criteria were used to identify this clone as encoding a bona fide bovine parathyroid Ca^2+ receptor. […] These responses increased markedly over a period of one to four days after injection of the eggs with cRNA prepared from the BoPCaR 1 cDNA. Furthermore, the ranges of the concentrations of the two cations eliciting this response were very similar to those shown previously to act on bovine parathyroid cells in vitro.
Xenopus oocytes were injected with BoPCaR 1, the 5.3 Kb cDNA encoding a bovine parathyroid cell calcium receptor as described in Example 25. After two to three days, Cl^- currents were examined in the oocytes using a two-electrode voltage clamp.
Xenopus oocytes were injected with BoPCaR 1 as described in Example 25. After two to three days, Cl^- currents were examined in the oocytes using two electrode voltage clamp.

[3] = test system: Ca2+ influx in parathyroid cells; test: Ca2+ influx in bovine parathyroid cells; conditions: for effect on [Ca2+]i: 100 to 1000 μM, 2 mM CaCl2; for effect on extracellular Ca2+-elicited increases in [Ca2+]i: pretreatment

Compound `CC(NCCCc1ccccc1)C1CCCCC1` (stereo not shown) [Compound 20V] has an EC50 ([1]; Table 7) of over 100 µM.
`N=C(N)NCCC[C@H](N)C(=O)NCCCNCCCNCCCCCNC(=O)[C@H](CC(N)=O)NC(=O)Cc1ccc(O)cc1O` [Argiotoxin-636] was tested, and the “effect on response to extracellular Ca2+” value [1] was “did potentiate cytosolic Ca^2+”, the “effect on [Ca2+]i” value ([1]; 400 μM) was “did not elicit increases in [Ca^2+ ]” and the “effect on [Ca2+]i” value ([1]; 100 to 300 μM) was “had no effect”.
For `CC(N[C@H](C)c1ccccc1)c1cccc2ccccc12` (stereo partly shown) [Compound 4G], the EC50 ([1]; Table 8) was 1.8 µM.
`O=C(O)CN(CCOCCOCCN(CC(=O)O)CC(=O)O)CC(=O)O` [EGTA] was tested, and the “effect on inward currents” value [2] was “prevents oocytes expressing the calcium receptor from responding”.
For `N=C(N)NCCC[C@H](N)C(=O)NCCCNCCCNCCCCCNC(=O)[C@H](CC(N)=O)NC(=O)Cc1c[nH]c2cccc(O)c12` [Argiotoxin-659], the “effect on [Ca2+]i” value ([1]; 100 to 300 μM) was “evoked transient increases in [Ca^2+ ]i”.
For `CC(NCCCc1ccccc1)c1ccccc1` (stereo not shown) [Compound 1D], the “relative potency, in words” value [1] was “nearly as potent as the parent molecule”.
With `CCN(CC)CCCCCCCCOC(=O)c1cc(OC)c(OC)c(OC)c1` [TMB-8] the “effect on influx of extracellular Ca2+” value ([3]; 100 μM) was “blocked the influx of extracellular Ca^2+”, the “mode of action at the calcium receptor” value [1] was “partial agonists or allosteric activators” and the “effect on mobilization elicited by extracellular divalent cations” value [1] was “potentiated the mobilization of intracellular Ca^2+; also recorded: potentiated transient increases in [Ca^2+ ]i”. For the same compound, the “effect on [Ca2+]i at low extracellular Ca2+” value [1] was “evoked no change”.
With `COc1cccc([C@H](C)NCCCc2ccccc2Cl)c1` [NPS S-568] the concentration eliciting responses ([2]; BoPCaR 1-injected oocytes, only at much higher concentrations) was 100 µM.
In the case of `COc1cccc(C(C)NCCC(c2ccccc2)c2ccccc2)c1` (racemic) [meta-Methoxyfendiline], the “relative potency, in words” value [1] is reported as “as potent as NPS 467”.
With `CC1=C(C(=O)OC(C)C)[C@@H](c2cccc3nonc23)C([N+](=O)[O-])=C(C)N1` [(-) 202-791] the “effect on basal or extracellular Ca2+-evoked [Ca2+]i” value ([1]; 1 μM) was “None of the dihydropyridines tested”.
`NCCNCCNCCNCCN` [Tetraethylenepentamine (TEPA), Tetraethylenepentamine] was tested, and the “effect on [Ca2+]i” value [1] was “mobilize intracellular Ca^2+”.
With `COc1ccc(CC(=O)NCCCCCCCCCCCCN)cc1OC` [NPS 384] the “effect on influx of extracellular Ca2+” value ([3]; 300 μM) was “blocked influx of extracellular Ca^2+”, the “effect on [Ca2+]i” value [3] was “causes a prompt fall in [Ca^2+ ]i” and the “effect on extracellular Ca2+-elicited increases in [Ca2+]i” value [3] was “depresses steady-state, but not transient increases in [Ca^2+ ]i”. For the same compound, the “effect on [Ca2+]i” value ([1]; NPS 384 300 μM) was “did not evoke an increase in [Ca^2+ ]i; also recorded: fails to do so”.
With `COC(=O)C1=C(C)NC(C)=C(C(=O)OC)C1c1ccccc1[N+](=O)[O-]` [nifedipine] the “effect on basal or extracellular Ca2+-evoked [Ca2+]i” value [1] was “None of the dihydropyridines tested”.
With `NCCNCCNCCN` [Triethylenetramine (TETA), triethylenetetramine] the “effect on [Ca2+]i” value [1] was “mobilize intracellular Ca^2+”.
For `CNc1ccc2oc(C[C@H]3O[C@@]4(CC[C@H]3C)O[C@H]([C@H](C)C(=O)c3ccc[nH]3)[C@H](C)C[C@H]4C)nc2c1C(=O)O` [Compound A23187], the “effect on inward currents” value [2] was “activated”.
`NCCCN(CCCN)CCCN(CCCN)CCCCN(CCCN)CCCN(CCCN)CCCN` [NPS 381, N^1,N^1,N^5,N^10,N^14,N^14-hexakis-(3-aminopropyl) spermine] was tested, and the “effect on [Ca2+]i” value [1] was “mobilize intracellular Ca^2+”.
For `CC1=C(C(=O)OC(C)C)[C@H](c2cccc3nonc23)C([N+](=O)[O-])=C(C)N1` [(+) 202-791], the “effect on basal or extracellular Ca2+-evoked [Ca2+]i” value ([1]; 1 μM) was “None of the dihydropyridines tested”.
For `O=C(O)c1c2ccccc2cc2ccccc12` [Compound 9AC], the “effect on inward currents” value [2] was “blocks the currents”.
Work on `C[C@@H](NCc1ccc(C(C)(C)C)cc1)c1cccc2ccccc12` [Compound 15G] yielded an EC50 ([1]; Table 8) of about 0.5 µM.
Compound `CC(C)c1ccc([C@@H](C)N[C@H](C)c2cccc3ccccc23)cc1` [Compound 14L] has an EC50 ([1]; Table 8) of 0.26 µM.
In the case of `CC(N[C@H](C)c1ccccc1)c1ccc2ccccc2c1` (stereo partly shown) [Compound 4H], the EC50 ([1]; Table 8) is reported as at least 3 µM.
`NC[C@H]1O[C@H](O[C@H]2[C@H](O)[C@@H](O[C@H]3O[C@H](CO)[C@@H](O)[C@H](N)[C@H]3O)[C@H](N)C[C@@H]2N)[C@H](O)[C@@H](O)[C@@H]1O` [Kanamycin] was tested, and the “effect on [Ca2+]i” value ([1]; 500 μM) was “without effect”.
`COc1cccc([C@@H](C)N[C@H](C)c2cccc3ccccc23)c1` [Compound 14Y] was tested, and the EC50 ([1]; Table 8) was 0.38 µM.
For `CCOC(=O)C1=C(C)NC(C)=C(C(=O)OC)C1c1cccc([N+](=O)[O-])c1` (stereo not shown) [nitrendipine], the “effect on basal or extracellular Ca2+-evoked [Ca2+]i” value ([1]; 1 μM) was “None of the dihydropyridines tested”.
In the case of `COc1ccc(CCN(C)CCCC(C#N)(c2cc(OC)c(OC)c(OC)c2)C(C)C)cc1OC` [Compound D-600], the “effect on influx of extracellular Ca2+” value ([3]; 100 μM) is reported as “blocked the influx of extracellular Ca^2+”, the “mode of action at the calcium receptor” value [1] is reported as “partial agonists or allosteric activators” and the “effect on mobilization elicited by extracellular divalent cations” value [1] is reported as “potentiated the mobilization of intracellular Ca^2+”. The “effect on [Ca2+]i at low extracellular Ca2+” value [1] was “evoked no change”.
In the case of `COC(=O)C1=C(C)NC(C)=C([N+](=O)[O-])C1c1ccccc1C(F)(F)F` (stereo not shown) [BAY K 8644], the “effect on basal or extracellular Ca2+-evoked [Ca2+]i” value ([1]; 1 μM) is reported as “None of the dihydropyridines tested”.
With `CCCC(=O)N[C@@H](Cc1ccc(O)cc1)C(=O)NCCCCNCCCNCCCN` [Philanthotoxin-433] the “effect on [Ca2+]i” value ([1]; 500 μM) was “without effect”.
In the case of `CCC[C@@H]1C[C@@H](C(=O)N[C@@H]([C@H]2O[C@H](SC)[C@H](O)[C@@H](O)[C@H]2O)[C@@H](C)O)N(C)C1` [lincomycin], the “effect on [Ca2+]i” value ([1]; 500 μM) is reported as “without effect”.
With `NCCCCCCCCCCCCN` [1,12-diaminododecane (DADD), 1,12-diaminododecane] the “effect on [Ca2+]i” value [3] was “causes a prompt fall in [Ca^2+ ]i” and the “effect on extracellular Ca2+-elicited increases in [Ca2+]i” value [3] was “depresses steady-state, but not transient increases in [Ca^2+ ]i”.
With `NCCCNCCCCNCCCNCCCN(O)CCCNC(=O)Cc1c[nH]c2ccccc12` [NPS 017] the “effect on Cl- current” value ([2]; BoPCaR 1-injected oocytes) was “caused oscillatory increases in the Cl^-” and the “effect in control oocytes” value ([2]; uninjected, water or rat liver mRNA oocytes) was “Neither NPS 017 nor NPS 019 elicited changes in Cl^-”.
